How the values were obtained:
Type in all cases: functional
HeLa = experiment: Antiproliferative activity against human HeLa cells after 48 hrs by SRB assay
A549 = experiment: Antiproliferative activity against human A549 cells after 48 hrs by SRB assay; conditions: A549, 48 h
[1] = Antiproliferative activity against human PANC1 cells after 48 hrs by SRB assay; conditions: PANC-1, 48 h
MDA-MB-231 = experiment: Antiproliferative activity against human MDA-MB-231 cells after 48 hrs by SRB assay; conditions: MDA-MB-231, 48 h

Structure (SMILES)	GI50 (HeLa) [nM]	GI50 (A549) [nM]	GI50 [1] [nM]	GI50 (MDA-MB-231) [nM]
Cc1cc2c(cc1C)C(Cl)=C(c1nnc(-c3ccc(F)cc3)o1)CCC2	6420	2810	520	1400
Cc1cc2c(cc1C)C(Cl)=C(c1nnc(-c3cccc(Cl)c3)o1)CCC2	5940	1970	4570	3310
Cc1cc2c(cc1C)C(Cl)=C(c1nnc(-c3cccc(I)c3)o1)CCC2	4460	2780	4120	2670
Cc1cc2c(cc1C)C(Cl)=C(c1nnc(-c3cccc(C(F)(F)F)c3)o1)CCC2	1570	1970	794	2460
Cc1cc2c(cc1C)C(Cl)=C(c1nnc(-c3ccccc3)o1)CCC2	4680	1960	4120	2760
Cc1ccc(-c2nnc(C3=C(Cl)c4cc(C)c(C)cc4CCC3)o2)cc1	679	2470	3880	1760
COc1cc(-c2nnc(C3=C(Cl)c4cc(C)c(C)cc4CCC3)o2)cc(OC)c1OC	562	1260	1880	956
COc1ccc([N+](=O)[O-])c(-c2nnc(C3=C(Cl)c4cc(C)c(C)cc4CCC3)o2)c1OC	310	871	957	1160
Cc1ccc(-c2nnc(C3=C(Cl)c4ccccc4CCC3)o2)cc1	79	3420	6810	1400
COc1cc(-c2nnc(C3=C(Cl)c4ccccc4CCC3)o2)cc(OC)c1OC	1730	4570	729	3320
O=[N+]([O-])c1ccc(-c2nnc(C3=C(Cl)c4ccccc4CCC3)o2)cc1	1320	2610	3980	3280
COc1ccc([N+](=O)[O-])c(-c2nnc(C3=C(Cl)c4ccccc4CCC3)o2)c1OC	2830	5360	7230	8280
ClC1=C(c2nnc(-c3cccc(I)c3)o2)CCCc2ccccc21	4100	2560	2370	4940
Cc1cc2c(cc1C)C(Cl)=C(c1nnc(Nc3ccccc3)s1)CCC2	4920	4780	3660	5780
S=c1[nH]nc(C2=C(Cl)c3ccccc3CCC2)o1	981	4960	3430	1010
Cc1cc2c(cc1C)C(Cl)=C(c1n[nH]c(=S)o1)CCC2	4440	3270	2460	918
ClC1=C(c2nnc(-c3ccccc3)o2)CCCc2ccccc21	3220	2270	675	1970
O=C(NNC(=S)Nc1ccccc1)C1=C(Cl)c2ccccc2CCC1	3870	4880	5850	2460
Cc1cc2c(cc1C)C(Cl)=C(C(=O)NNC(=S)Nc1ccccc1)CCC2	471	759	928	3140
Sc1nnc(C2=C(Cl)c3ccccc3CCC2)n1-c1ccccc1	5500	3490	3510	4930
Cc1cc2c(cc1C)C(Cl)=C(c1nnc(S)n1-c1ccccc1)CCC2	1160	1490	2650	2640
ClC1=C(c2nnc(Nc3ccccc3)s2)CCCc2ccccc21	1320	2350	158	947
COc1cc2c(c(OC)c1OC)-c1ccc(OC)c(=O)cc1[C@@H](NC(C)=O)CC2 [COLCHICINE]	40	30	10	< 10
COc1ccc(C[C@@H](O)c2cc(OC)c(OC)c(OC)c2)cc1O [COMBRETASTATIN]	10	10	20	19
COc1cccc2c1C(=O)c1c(O)c3c(c(O)c1C2=O)C[C@@](O)(C(=O)CO)C[C@@H]3O[C@H]1C[C@H](N)[C@H](O)[C@H](C)O1 [DOXORUBICIN]	< 10	< 10	< 10	20
COC(=O)Nc1nc2cc(C(=O)c3cccs3)ccc2[nH]1 [NOCODAZOLE]	15	20	< 10	17
CC(=O)O[C@H]1C(=O)[C@@]2(C)[C@H]([C@H](OC(=O)c3ccccc3)[C@]3(O)C[C@H](OC(=O)[C@H](O)[C@@H](NC(=O)c4ccccc4)c4ccccc4)C(C)=C1C3(C)C)[C@]1(OC(C)=O)CO[C@@H]1C[C@@H]2O [PACLITAXEL]	20	< 10	12	< 10
